Reference: patent publication US10683282B2, “Multi-substituted pyrimidine derivatives with excellent kinase inhibitory activities” (KOREA INSTITUTE OF SCIENCE AND TECHNOLOGY, priority 2018, dated 2020)

Tests used:
[1] = tested on: Ba/F3 parental; assay: Ba/F3 parental growth inhibition; type: cell-based; settings: Mus musculus, BaF3; Ba/F3 parental cells
[2] = target: FLT3 (ITD)-NPOS (Homo sapiens, UniProt P36888); assay: FLT3 mutant enzyme activity, HotSpot assay; type: biochemical; settings: ATP 10 μM
Procedure: (§1) Kinase screening was performed using a “HotSpot” assay platform method by Reaction Biology Corporation. The reaction buffer used herein contained 20 mM HEPES (pH 7.5), 10 mM MgCl2, 1 mM EGTA, 0.02% Brij35, 0.02 mg/mL BSA, 0.1 mM Na3VO4, 2 mM DTT and 1% DMSO. The required cofactors were added in accordance with the kinase reaction. Freshly made buffer and cofactors were added at a concentration of 20 μM during the selected enzyme reaction. A solution of the test compound in dimethylsulfoxide (DMSO) was added at a suitable concentration to this solution. In order to initiate reaction, […] (specific activity […]) was added and incubated at room temperature for 2 hours. The test compound was screened at a starting concentration of 20 μM in a 10-dose IC50 mode. IC50 of Staurosporine used as a control drug was obtained at a starting concentration of 20 μM in a 10-dose IC50 mode.

[3] = target: FLT3 (ITD) (Homo sapiens, UniProt P36888); assay: FLT3 mutant enzyme activity, HotSpot assay; type: biochemical; settings: ATP 10 μM
Procedure: as §1

[4] = target: T1, FLT3 (D835Y) (Homo sapiens, UniProt P36888, D835Y); assay: FLT3 mutant enzyme activity, HotSpot assay; type: biochemical; settings: ATP 10 μM
T1 construct: purchased Reaction Biology Corporation
Procedure: as §1

[5] = tested on: VERO; assay: Cytotoxicity test (cell counting kit-8); type: cell-based, African green monkey; settings: Chlorocebus sabaeus, WST-8
Description: Cell counting kit-8 assay is a general test method for identifying cell viability using a pale yellow tetrazolium salt called “WST-8”. WST-8, which is soluble in water, is degraded by a dehydrogenase present in the cells, forming orange formazan. Formazan dye is formed by dehydrogenase activity proportional to the number of viable cells, and thus can be used as an indicator for cell viability. The Hill equation of Graphpad Prism was used for analysis.

[6] = target: T2, JAK2 (Homo sapiens, UniProt O60674); assay: Kinase screening, HotSpot assay (Reaction Biology); type: biochemical
T2 construct: purchased Reaction Biology Corporation
T2 sequence (O60674 whole entry): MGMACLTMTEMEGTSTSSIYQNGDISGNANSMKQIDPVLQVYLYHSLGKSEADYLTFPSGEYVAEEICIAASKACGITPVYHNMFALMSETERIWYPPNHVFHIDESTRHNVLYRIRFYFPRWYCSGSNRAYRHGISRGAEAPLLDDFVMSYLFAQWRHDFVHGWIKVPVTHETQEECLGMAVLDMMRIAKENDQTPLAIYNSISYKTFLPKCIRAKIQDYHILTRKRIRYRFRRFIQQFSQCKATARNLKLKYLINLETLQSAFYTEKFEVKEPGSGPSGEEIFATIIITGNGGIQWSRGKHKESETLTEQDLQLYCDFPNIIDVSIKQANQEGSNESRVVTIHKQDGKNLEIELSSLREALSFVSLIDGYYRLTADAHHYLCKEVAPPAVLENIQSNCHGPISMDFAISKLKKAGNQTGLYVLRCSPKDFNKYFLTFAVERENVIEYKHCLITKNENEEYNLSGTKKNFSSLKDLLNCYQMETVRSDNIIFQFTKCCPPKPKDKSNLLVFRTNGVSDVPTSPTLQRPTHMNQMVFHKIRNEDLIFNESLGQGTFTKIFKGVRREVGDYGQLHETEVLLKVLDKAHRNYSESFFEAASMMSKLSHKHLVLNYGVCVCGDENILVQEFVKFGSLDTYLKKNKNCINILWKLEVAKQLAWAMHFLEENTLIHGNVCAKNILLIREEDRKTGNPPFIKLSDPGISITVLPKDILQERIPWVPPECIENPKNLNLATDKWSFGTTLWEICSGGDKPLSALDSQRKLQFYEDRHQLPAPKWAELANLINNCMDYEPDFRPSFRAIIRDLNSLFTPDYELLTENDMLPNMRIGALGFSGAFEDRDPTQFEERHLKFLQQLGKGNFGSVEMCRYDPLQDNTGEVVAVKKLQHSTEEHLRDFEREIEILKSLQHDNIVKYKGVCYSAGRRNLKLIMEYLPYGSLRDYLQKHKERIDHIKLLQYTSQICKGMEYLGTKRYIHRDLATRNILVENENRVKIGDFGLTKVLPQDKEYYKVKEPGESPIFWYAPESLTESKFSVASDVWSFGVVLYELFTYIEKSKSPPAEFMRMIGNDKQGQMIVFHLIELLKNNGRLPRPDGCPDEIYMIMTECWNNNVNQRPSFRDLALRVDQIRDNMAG
Procedure: as §1

[7] = target: T3, JAK1 (Homo sapiens, UniProt P23458); assay: Kinase screening, HotSpot assay (Reaction Biology); type: biochemical
T3 construct: purchased Reaction Biology Corporation
T3 sequence (P23458 whole entry): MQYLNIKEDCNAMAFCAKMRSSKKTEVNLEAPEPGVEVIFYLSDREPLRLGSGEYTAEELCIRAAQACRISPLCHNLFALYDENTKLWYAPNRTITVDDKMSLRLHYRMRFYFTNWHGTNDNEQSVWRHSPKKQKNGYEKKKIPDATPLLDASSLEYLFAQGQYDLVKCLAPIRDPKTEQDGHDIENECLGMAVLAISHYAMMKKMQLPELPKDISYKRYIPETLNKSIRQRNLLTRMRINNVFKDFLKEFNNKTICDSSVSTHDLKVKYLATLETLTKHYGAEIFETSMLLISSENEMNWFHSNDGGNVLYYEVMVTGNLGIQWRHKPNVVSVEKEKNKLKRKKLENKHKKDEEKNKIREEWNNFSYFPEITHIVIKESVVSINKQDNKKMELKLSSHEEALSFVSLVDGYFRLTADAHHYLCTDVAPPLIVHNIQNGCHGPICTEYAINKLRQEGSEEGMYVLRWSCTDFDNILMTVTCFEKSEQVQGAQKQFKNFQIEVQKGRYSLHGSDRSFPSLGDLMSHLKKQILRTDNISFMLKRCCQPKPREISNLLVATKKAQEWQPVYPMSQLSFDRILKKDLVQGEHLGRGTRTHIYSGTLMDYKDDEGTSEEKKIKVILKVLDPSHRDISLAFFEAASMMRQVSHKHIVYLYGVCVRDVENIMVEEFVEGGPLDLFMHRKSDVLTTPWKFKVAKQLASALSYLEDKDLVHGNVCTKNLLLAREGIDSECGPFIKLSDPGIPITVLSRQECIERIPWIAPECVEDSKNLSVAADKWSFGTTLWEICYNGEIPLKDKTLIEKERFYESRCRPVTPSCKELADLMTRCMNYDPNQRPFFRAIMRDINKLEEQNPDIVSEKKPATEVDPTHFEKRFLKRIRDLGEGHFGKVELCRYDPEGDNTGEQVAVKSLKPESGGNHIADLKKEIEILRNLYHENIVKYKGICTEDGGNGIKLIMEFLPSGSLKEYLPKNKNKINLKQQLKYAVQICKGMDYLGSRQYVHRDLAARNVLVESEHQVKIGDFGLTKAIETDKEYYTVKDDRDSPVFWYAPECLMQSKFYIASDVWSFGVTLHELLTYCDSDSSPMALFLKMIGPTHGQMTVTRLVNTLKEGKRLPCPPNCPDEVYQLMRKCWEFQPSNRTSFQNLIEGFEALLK
Procedure: as §1

[8] = target: T4, ACK1 (Homo sapiens, UniProt Q07912); assay: Kinase screening, HotSpot assay (Reaction Biology); type: biochemical
T4 construct: purchased Reaction Biology Corporation
T4 sequence (Q07912 whole entry): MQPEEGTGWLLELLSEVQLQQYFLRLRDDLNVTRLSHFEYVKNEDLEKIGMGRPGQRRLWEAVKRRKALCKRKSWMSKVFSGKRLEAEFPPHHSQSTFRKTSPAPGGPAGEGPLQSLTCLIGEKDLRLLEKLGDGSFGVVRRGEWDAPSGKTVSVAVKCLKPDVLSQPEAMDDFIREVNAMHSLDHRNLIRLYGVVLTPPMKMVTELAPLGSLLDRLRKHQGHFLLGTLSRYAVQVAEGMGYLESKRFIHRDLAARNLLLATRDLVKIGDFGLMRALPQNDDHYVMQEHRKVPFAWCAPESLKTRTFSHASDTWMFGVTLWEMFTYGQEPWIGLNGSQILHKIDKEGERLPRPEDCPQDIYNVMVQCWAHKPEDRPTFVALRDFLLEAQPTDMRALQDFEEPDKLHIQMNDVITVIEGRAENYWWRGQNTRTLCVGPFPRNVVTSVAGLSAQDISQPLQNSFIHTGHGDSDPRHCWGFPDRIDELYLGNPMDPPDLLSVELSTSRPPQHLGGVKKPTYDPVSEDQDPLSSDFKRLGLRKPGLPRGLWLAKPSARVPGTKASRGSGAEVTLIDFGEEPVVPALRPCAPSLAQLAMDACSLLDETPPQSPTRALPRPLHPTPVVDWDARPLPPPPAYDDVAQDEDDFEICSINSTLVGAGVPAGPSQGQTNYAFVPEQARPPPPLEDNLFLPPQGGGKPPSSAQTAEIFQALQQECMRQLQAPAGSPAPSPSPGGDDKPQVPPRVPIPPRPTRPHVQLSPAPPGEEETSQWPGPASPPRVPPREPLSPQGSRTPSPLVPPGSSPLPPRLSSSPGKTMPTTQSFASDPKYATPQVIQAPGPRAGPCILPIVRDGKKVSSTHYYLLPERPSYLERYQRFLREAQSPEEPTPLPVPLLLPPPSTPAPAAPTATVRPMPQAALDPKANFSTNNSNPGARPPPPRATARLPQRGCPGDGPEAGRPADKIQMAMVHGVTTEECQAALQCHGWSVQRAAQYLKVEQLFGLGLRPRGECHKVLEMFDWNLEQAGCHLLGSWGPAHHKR
Procedure: as §1

[9] = target: T5, JAK2(V617F) (Homo sapiens, UniProt O60674, V617F); assay: Kinase screening, HotSpot assay (Reaction Biology); type: biochemical
T5 construct: purchased Reaction Biology Corporation
T5 sequence (O60674 whole entry V617F): as the sequence (O60674 whole entry) above, with V617F counted along it
Procedure: as §1

[10] = target: T6, ARK5/NUAK1 (Homo sapiens, UniProt O60285); assay: Kinase screening, HotSpot assay (Reaction Biology); type: biochemical
T6 construct: purchased Reaction Biology Corporation
T6 sequence (O60285 1-661): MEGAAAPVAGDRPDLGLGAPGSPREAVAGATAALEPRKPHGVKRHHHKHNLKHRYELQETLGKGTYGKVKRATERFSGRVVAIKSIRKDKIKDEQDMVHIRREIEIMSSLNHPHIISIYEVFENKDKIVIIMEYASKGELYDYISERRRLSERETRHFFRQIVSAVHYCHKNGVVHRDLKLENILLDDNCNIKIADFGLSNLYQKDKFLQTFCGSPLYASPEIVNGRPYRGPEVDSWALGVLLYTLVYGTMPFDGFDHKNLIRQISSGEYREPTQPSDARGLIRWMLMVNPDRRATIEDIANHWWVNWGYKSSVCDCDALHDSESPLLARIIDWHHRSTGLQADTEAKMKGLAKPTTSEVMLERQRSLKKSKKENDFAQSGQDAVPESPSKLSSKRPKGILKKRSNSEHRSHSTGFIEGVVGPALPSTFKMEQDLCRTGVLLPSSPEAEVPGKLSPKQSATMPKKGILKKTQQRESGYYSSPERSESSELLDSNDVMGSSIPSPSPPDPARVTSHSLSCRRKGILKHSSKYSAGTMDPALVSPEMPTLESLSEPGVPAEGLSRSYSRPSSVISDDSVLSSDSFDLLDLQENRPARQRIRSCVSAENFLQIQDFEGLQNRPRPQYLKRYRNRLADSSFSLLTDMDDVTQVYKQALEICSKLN
Procedure: as §1

IC50 [2]: 0.0045 µM
IC50 [3]: 0.0015 µM
IC50 [4]: < 0.001 µM
IC50 [6]: 0.00885 µM
IC50 [7]: 0.0161 µM
IC50 [8]: 0.0513 µM
IC50 [9]: 0.0256 µM
IC50 [10]: 0.0024 µM
Compound: Clc1cnc(Nc2ccc(OCCN3CCCC3)cc2)nc1NCc1ccco1 [Compound 5, 5-chloro-4-(furan-2-yl)methylamino-2-[4-{2-(pyrrolidin-1-yl)ethoxy}phenylamino]pyrimidine]
GI50 [1]: 1.82 µM
IC50 [5]: 19.7 µM
